Where two headings read alike, the source gives them in different places. Marks after values point to notes of the source that are not given here. Each block holds one molecule with its values, some of them ahead of it.
Columns and labels:
[1] = system: cancer patients; conditions: cited from earlier work; for MTD: ref Adjei et al, 2003b
[2] = dFdCTP in white blood cells with or without tipifarnib; type: in vivo, human; conditions: mononuclear blood cell, adjusted to 750 mg m^−2 gemcitabine
[3] = Plasma pharmacokinetics of gemcitabine and dFdU (HPLC) with or without tipifarnib; conditions: for AUC(0-t) / Cmax: 750 mg
Description: (§1) In cycle 2, tipifarnib pharmacokinetics was then determined on day 2. For gemcitabine, 2 ml blood samples were taken at 0, 15, 30, 35, 45, 60, 90 min and at 2, 2.5, 24, 32 and 48 h after the start of the 30 min infusion during cycle 1 and at 0, 15, 30, 35, 45, 60, 90 min during cycle 2. Both gemcitabine and its metabolite 2′, 2′ -difluoro-2′-deoxy-uridine (dFdU) were measured in plasma. Of each blood sample, 1 ml was added to 10 μl of tetrahydrouridine (10 mg ml^−1), after which it was centrifuged for 5 min at 4°C and 1500 g. Subsequently, the plasma layer was stored at −20°C until analysis. Additionally, 15 ml blood samples were taken at 0, 1.5, 4 and 24 h after the start of the gemcitabine infusion for the determination of the triphosphate metabolite of gemcitabine (dFdCTP) in WBC ([Sparidans et al, 2002]). Isolation of WBC was performed using a Ficoll density gradient (Pharmacia, Sweden) as described previously ([Heinemann et al, 1998]). All gemcitabine levels were measured using a validated high-performance liquid chromatography (HPLC) method, analogous to the method of [Freeman et al (1995)]. […] Blood samples were immediately centrifuged for 5 min at 4°C and 1500 g. Unbound platinum was obtained by ultrafiltration using the MPS-1 system equipped with 3 kDa YMT membranes (Amicon Division, Danvers, MA, USA). The resulting plasma ultrafiltrate and total plasma were immediately stored at −20°C until analysis by atomic absorption spectrometry (AAS) ([Van Warmerdam et al, 1995]). […] For tipifarnib, 5 ml blood samples were drawn at 0, 1, 2, 3, 5, 8 and 12 h after the morning dose. Immediately after collection, the blood samples were centrifuged for 5 min at 4°C at 1500 g. Separated plasma was stored at −20°C for subsequent drug analysis by a validated HPLC method with UV detection ([Zujewski et al, 2000]).
(§2) The following pharmacokinetic parameters were determined using noncompartmental analysis with WinNonLin software (version 4.1, Pharsight Corporation, Mountain View, CA, USA): the maximum plasma concentration (Cmax), time to maximum plasma concentration (tmax), the elimination half-life (t1/2), the area under the plasma concentration–time curve from 0 to 48 h (AUC0–48) of gemcitabine and dFdU and the AUC0–23 for total and unbound (free) platinum. […] In addition, the AUC0–24 of dFdCTP and the AUA0–23 (area under the adduct curve) ([Schellens et al, 1996]) of Pt-DNA adducts were calculated in WBC. For tipifarnib, Cmax, tmax and AUC0-12 were determined.
(§3) The primary pharmacokinetic parameters of interest for the statistical analyses were Cmax and AUC. Only data from patients who completed the pharmacokinetic blood sampling during the first and second cycles and had no dose reduction were included in the analyses. […] A significance level of 0.05 was used for all analyses. The statistical analyses were performed using the SAS statistical software program (version 6.12; SAS Institute, Inc., Cary, NC, USA).

[4] = system: patients with advanced solid tumours; test: Phase I trial: dose-limiting toxicities in cycle 1 and maximum tolerated dose; type: in vivo, human
Description: Tipifarnib was supplied by Johnson & Johnson Pharmaceutical Research and Development as 100 mg tablets. […] Tipifarnib was administered orally twice daily, with intervals of 12 h. Tipifarnib was given on days 1–7 of each 21-day cycle. […] To minimise nephrotoxicity, a pre-and posthydration schedule was implemented on day 1. […] At least three patients were treated at each dose level. If DLT occurred in a patient during cycle 1, three additional patients were enrolled in that cohort. MTD was defined at which 2 or more out of 6 patients (2⩾6) experienced DLT. […] These toxicities were only considered DLT if they occurred during the first cycle of treatment. In the case of grade 3–4 haematological toxicities, the dose of gemcitabine was adjusted in the next cycle based on nadir blood cell counts. Dose adjustments were relative to the starting dose of gemcitabine received in the previous cycle of therapy. If the nadir granulocyte count was >500 μl^−1 and the nadir platelet count >50 000 μl^−1, 100% of the planned gemcitabine dose was administered. […] The administration of tipifarnib was discontinued when haematological DLT occurred. After recovery to at least grade 1, tipifarnib was reinstituted at the same dose level in conjunction with a dose modification of gemcitabine. […]

[5] = system: patients with advanced solid tumours; test: Phase I trial: treatment emergent grade 3 or 4 haematological and nonhaematological toxicities (NCI-CTC v2.0), all cycles; conditions: human, in vivo
Description: Tipifarnib was supplied by Johnson & Johnson Pharmaceutical Research and Development as 100 mg tablets. […] Tipifarnib was administered orally twice daily, with intervals of 12 h. Tipifarnib was given on days 1–7 of each 21-day cycle. […] To minimise nephrotoxicity, a pre-and posthydration schedule was implemented on day 1. […] At least three patients were treated at each dose level. If DLT occurred in a patient during cycle 1, three additional patients were enrolled in that cohort. MTD was defined at which 2 or more out of 6 patients (2⩾6) experienced DLT. […] These toxicities were only considered DLT if they occurred during the first cycle of treatment. In the case of grade 3–4 haematological toxicities, the dose of gemcitabine was adjusted in the next cycle based on nadir blood cell counts. Dose adjustments were relative to the starting dose of gemcitabine received in the previous cycle of therapy. If the nadir granulocyte count was >500 μl^−1 and the nadir platelet count >50 000 μl^−1, 100% of the planned gemcitabine dose was administered. […] The administration of tipifarnib was discontinued when haematological DLT occurred. After recovery to at least grade 1, tipifarnib was reinstituted at the same dose level in conjunction with a dose modification of gemcitabine. If a patient continued to experience haematological DLT after one dose modification of gemcitabine, the dose of tipifarnib was decreased with 100 mg b.i.d. If at any time the dose of tipifarnib was to be reduced to <100 mg b.i.d. or if retreatment needed to be delayed >2 weeks after the scheduled restarting of a cycle, the patient went off-study. […] If grade 4 nonhaematological toxicities occurred, patients went off-study. No dose adjustments were made for transaminase elevation unless associated with clinical signs or symptoms. […] If at any time the dose of tipifarnib was to be reduced to <100 mg b.i.d. or if retreatment needed to be delayed >2 weeks after the scheduled restarting of a cycle, the patient went off-study.
Complete patient history, physical examination, haematology, chemistry, urinalysis and electrocardiogram were performed at baseline and before each cycle of treatment. Physical examination, haematology and chemistry were also evaluated on days 8 and 15 of each cycle. Audiometry was performed at baseline and was repeated if clinically indicated. Indicator lesions were measured before start of treatment and every two cycles, as a basis for the assessment of activity of the treatment. All toxicities observed were graded according to the Common Toxicity Criteria ([NCI-CTC, Version 2.0, 1998]).

[6] = system: plasma proteins; conditions: cited from earlier work
[7] = Plasma pharmacokinetics of tipifarnib (HPLC-UV) as monotherapy or with gemcitabine/cisplatin; type: in vivo, human; conditions: single 200 mg oral dose
Description: as §1, §2, §3

[8] = cited from earlier work
[9] = combination with tipifarnib given for 14 days

SMILES: N.N.[Cl][Pt][Cl] [cisplatin]
MTD [1, 9]: 75 mg m^−2

SMILES: Nc1ccn([C@@H]2O[C@H](COP(=O)(O)OP(=O)(O)OP(=O)(O)O)[C@@H](O)C2(F)F)c(=O)n1 [dFdCTP]
AUC0–24, mean (s.d.) ([2]; Gem/cis without tipifarnib): 18.3 (40.9) ^i h nanomol mg protein^−1 | AUC0–24, mean (s.d.) ([2]; Gem/cis+tipifarnib 100–300 mg): 14.7 (22.9) ^j h nanomol mg protein^−1 | Pharmacokinetic (drug–drug) interaction ([3]; cycle 1 (with tipifarnib) vs cycle 2 (without tipifarnib), Cmax and AUC, ANOVA): no drug–drug interaction

AUC(0-t) ([3]; human, in vivo): 237000 ng·h/mL | Cmax ([3]; human, in vivo): 25600 ng/mL | Pharmacokinetic (drug–drug) interaction ([3]; in vivo): significant difference
SMILES: O=c1ccn([C@@H]2O[C@H](CO)[C@@H](O)C2(F)F)c(=O)[nH]1 [dFdU, 2′, 2′ -difluoro-2′-deoxy-uridine]

SMILES: Nc1ccn([C@@H]2O[C@H](CO)[C@@H](O)C2(F)F)c(=O)n1 [gemcitabine]
Maximum tolerated dose (MTD) ([4]; i.v., in the combination of tipifarnib, gemcitabine (days 1 and 8) and cisplatin (day 1), 21-day cycle (dose level 3)): 1000 mg m^−2 | Patients with a dose reduction owing to haematological toxicities [5]: 16% | Patients with a dose reduction owing to nonhaematological toxicities [5]: 13% | Binding to plasma proteins ([6]; ref Shipley et al, 1992): negligible | MTD [1, 9]: 1000 mg m^−2 | AUC(0-t) ([3]; human, in vivo): 6710 ng·h/mL | Cmax ([3]; human, in vivo): 12500 ng/mL | Median tmax ([3]; human, in vivo, iv): 0.50 h | Pharmacokinetic (drug–drug) interaction ([3]; in vivo): no drug–drug interaction

SMILES: Cn1cncc1[C@@](N)(c1ccc(Cl)cc1)c1ccc2c(c1)c(-c1cccc(Cl)c1)cc(=O)n2C [tipifarnib]
AUC(0-t) ([7]; human, tipifarnib as monotherapy (cycle 2 day 2), n=20, read-out: AUC0-12, mean (s.d.)): 2630 ng·h/mL | Cmax ([7]; human, tipifarnib as monotherapy (cycle 2 day 2), n=20, read-out: Cmax, mean (s.d.)): 499 ng/mL | Median tmax ([7]; tipifarnib as monotherapy (cycle 2 day 2), n=20): 3.0 h | AUC0-12, mean (s.d.) ([7]; with gemcitabine 750–1000 mg m^−2 and cisplatin 75–100 mg m^−2 (cycle 1 day 1), n=22): 2971 (2089) ^c h ng ml^−1 | Median tmax ([7]; with gemcitabine 750–1000 mg m^−2 and cisplatin 75–100 mg m^−2 (cycle 1 day 1), n=23): 2.1 h | Maximum tolerated dose (MTD) ([4]; oral, days 1–7 of each 21-day cycle, in combination with gemcitabine and cisplatin (dose level 3)): 200 mg b.i.d. | Patients with a dose reduction owing to haematological toxicities [5]: 10% | Patients with a dose reduction owing to nonhaematological toxicities [5]: 3% | Bound to plasma proteins ([6]; ref Janssen Research Foundation, 2003): 99% | Preclinical interaction of the combination ([8]; tipifarnib combined with cisplatin, ref Skrzat et al, 1999): additive | Preclinical interaction of the combination ([8]; tipifarnib combined with gemcitabine, ref Janssen Research Foundation, 2003): synergy | Recommended dose ([1]; continuous tipifarnib with gemcitabine 1000 mg m^−2 on days 1, 8 and 15 every 4 weeks, ref Patnaik et al, 2003): 200 mg b.i.d. | Dose up to which the regimen was safe ([1]; monotherapy, 7 consecutive days, cancer patients, ref Zujewski et al, 2000): at least 300 mg b.i.d. | MTD ([1]; tipifarnib for 14 days with gemcitabine days 1 and 8 and cisplatin day 1): 300 mg b.i.d.

Source: article PMC2361514 (British Journal of Cancer, 2005)
